The values that follow come from PubChem BioAssay AID256 (DTP/NCI, 2004).

Where “and” joins values, the source holds several entries; their conditions need not be identical. Equal entries are not always repeated. Toxic doses and inconclusive results are not listed.

This experiment deals with CD2F1 mice, L1210 leukemia ip, survival T/C. Briefly: NCI In Vivo Anticancer Drug Screen. Data for tumor model L1210 Leukemia (intraperitoneal) in CD2F1 (CDF1) mice. The following applies: higher = longer survival. The method, boiled down: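 Ratio T/C, where T is the treated-group value and C the vehicle-dosed control value, from mice implanted with a transplantable tumor.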

Setting [1] is: endpoint: mean survival time, dose: 18.75 mg/kg/injection, schedule: Q01DX009 (ip), vehicle: Klucel (hydroxypropylcellulose) (HPC).
The mark [2] stands for this setting: endpoint: mean survival time, dose: 75.0 mg/kg/injection, schedule: Q01DX009 (ip), vehicle: Klucel (hydroxypropylcellulose) (HPC).
[3] abbreviates: endpoint: mean survival time, dose: 100.0 mg/kg/injection, schedule: Q04DX002 (ip), vehicle: saline with Tween-80.
Where [4] appears, read: endpoint: mean survival time, dose: 200.0 mg/kg/injection, schedule: Q04DX002 (ip), vehicle: saline with Tween-80.
[5] abbreviates: endpoint: mean survival time, dose: 100.0 mg/kg/injection, schedule: Q04DX003 (ip), vehicle: saline with Tween-80.
Setting [6] is: endpoint: mean survival time, dose: 200.0 mg/kg/injection, schedule: Q04DX003 (ip), vehicle: saline with Tween-80.
The mark [7] stands for this setting: endpoint: mean survival time, dose: 400.0 mg/kg/injection, schedule: Q04DX003 (ip), vehicle: saline with Tween-80.
[8] abbreviates: endpoint: mean survival time, dose: 50.0 mg/kg/injection, schedule: Q04DX002 (ip), vehicle: saline with Tween-80.

With `C[C@@]12C(=O)OC(=O)[C@]1(C)[C@H]1CC[C@@H]2O1`, the T/C is 110 % of control (endpoint: median survival time, dose: 0.06 mg/kg/injection, schedule: Q01DX009 (ip), vehicle: Klucel (hydroxypropylcellulose) (HPC)); 102 % of control (endpoint: median survival time, dose: 0.12 mg/kg/injection, schedule: Q01DX009 (ip), vehicle: Klucel (hydroxypropylcellulose) (HPC)); 103 % of control (endpoint: median survival time, dose: 0.25 mg/kg/injection, schedule: Q01DX009 (ip), vehicle: Klucel (hydroxypropylcellulose) (HPC)); 104 % of control (endpoint: median survival time, dose: 0.5 mg/kg/injection, schedule: Q01DX009 (ip), vehicle: Klucel (hydroxypropylcellulose) (HPC)); 92 % of control (endpoint: median survival time, dose: 1.0 mg/kg/injection, schedule: Q01DX009 (ip), vehicle: Klucel (hydroxypropylcellulose) (HPC)).

With `Cc1ccc(N=NN(C)C)cc1`, the T/C by setting is: under setting [1], 118 % of control; under setting [2], 152 % of control.

For the compound `O=C(COc1ccc(Cl)cc1Cl)Nc1cccc(Cl)c1`, the T/C reads like this: under setting [3], 101 % of control; under setting [4], 101 % of control; (endpoint: mean survival time, dose: 400.0 mg/kg/injection, schedule: Q04DX002 (ip), vehicle: saline with Tween-80) 93 % of control.

On to `O=C(COc1ccc(Cl)c(Cl)c1)NCCc1cc[n+](Cc2ccc(Cl)cc2S(=O)(=O)F)cc1`, for which the T/C by setting is: (endpoint: mean survival time, dose: 100.0 mg/kg/injection, schedule: Q01DX001 (ip), vehicle: saline with Tween-80) 89 % of control; (endpoint: mean survival time, dose: 200.0 mg/kg/injection, schedule: Q01DX001 (ip), vehicle: saline with Tween-80) 89 % of control.

`CC(C)(C)c1ccc(SCC#CCOc2ccc(Cl)cc2)cc1`: the T/C was 95 % of control (endpoint: mean survival time, dose: 100.0 mg/kg/injection, schedule: Q01DX009 (ip), vehicle: saline with Tween-80); 95 % of control under setting [5]; 91 % of control (endpoint: mean survival time, dose: 200.0 mg/kg/injection, schedule: Q01DX009 (ip), vehicle: saline with Tween-80); 96 % of control under setting [6]; 88 % of control (endpoint: mean survival time, dose: 400.0 mg/kg/injection, schedule: Q01DX009 (ip), vehicle: saline with Tween-80); 87 % of control under setting [7].

As for `Cc1cc(-c2ccccc2)cc(=O)[nH]1`, the T/C is 92 % of control (endpoint: mean survival time, dose: 100.0 mg/kg/injection, schedule: Q01DX001 (ip), vehicle: other); 92 % of control (endpoint: mean survival time, dose: 200.0 mg/kg/injection, schedule: Q01DX001 (ip), vehicle: other); 91 % of control (endpoint: mean survival time, dose: 400.0 mg/kg/injection, schedule: Q01DX001 (ip), vehicle: other).

As for `CNNC(=O)OC`, the T/C is 95 % of control (endpoint: mean survival time, dose: 25.0 mg/kg/injection, schedule: Q04DX002 (ip), vehicle: saline); 98 % of control (endpoint: mean survival time, dose: 50.0 mg/kg/injection, schedule: Q04DX002 (ip), vehicle: saline); 121 % of control and 109 % of control (endpoint: mean survival time, dose: 100.0 mg/kg/injection, schedule: Q04DX002 (ip), vehicle: saline).

For `COc1cc2cc(c1Cl)N(C)C(=O)/C=C/C1(C)OC1C(C)C1CC(O)(NC(=O)O1)C(OC)C=C/C=C(\C)C2` (configuration not stated), the T/C (endpoint: mean survival time, dose: 1.3 micrograms/kg/injection, schedule: Q01DX009 (ip), vehicle: saline + alcohol) was 94 % of control; the T/C (endpoint: mean survival time, dose: 2.5 micrograms/kg/injection, schedule: Q01DX009 (ip), vehicle: saline + alcohol) was 94 % of control; the T/C (endpoint: mean survival time, dose: 5.0 micrograms/kg/injection, schedule: Q01DX009 (ip), vehicle: saline + alcohol) was 97 % of control; the T/C (endpoint: mean survival time, dose: 10.0 micrograms/kg/injection, schedule: Q01DX009 (ip), vehicle: saline + alcohol) is 97 % of control.

With `CN(C)N=Nc1ccccc1C(=O)NCC(F)(F)F`, the T/C by setting is: under setting [1], 96 % of control and 106 % of control; (endpoint: mean survival time, dose: 37.5 mg/kg/injection, schedule: Q01DX009 (ip), vehicle: Klucel (hydroxypropylcellulose) (HPC)) 93 % of control and 106 % of control; under setting [2], 96 % of control and 100 % of control; (endpoint: mean survival time, dose: 150.0 mg/kg/injection, schedule: Q01DX009 (ip), vehicle: Klucel (hydroxypropylcellulose) (HPC)) 100 % of control and 102 % of control; (endpoint: mean survival time, dose: 300.0 mg/kg/injection, schedule: Q01DX009 (ip), vehicle: Klucel (hydroxypropylcellulose) (HPC)) 100 % of control and 103 % of control.

Regarding `N#CSCN1C(=O)C=CC1=O`, the T/C is 93 % of control (endpoint: mean survival time, dose: 1.25 mg/kg/injection, schedule: Q01DX009 (ip), vehicle: saline with Tween-80); 89 % of control (endpoint: mean survival time, dose: 2.5 mg/kg/injection, schedule: Q01DX009 (ip), vehicle: saline with Tween-80); 93 % of control (endpoint: mean survival time, dose: 5.0 mg/kg/injection, schedule: Q01DX009 (ip), vehicle: saline with Tween-80).

Take `NC(=O)C1(C(N)=O)CCCCC1`: the T/C runs as follows: under setting [8], 100 % of control; under setting [3], 112 % of control; under setting [4], 100 % of control.

For the compound `CC(C)(C)N[P+](Cc1ccccc1)(NC(C)(C)C)c1ccccc1`, the T/C (endpoint: mean survival time, dose: 12.5 mg/kg/injection, schedule: Q04DX003 (ip), vehicle: saline with Tween-80) is 90 % of control and the T/C (endpoint: mean survival time, dose: 25.0 mg/kg/injection, schedule: Q04DX003 (ip), vehicle: saline with Tween-80) was 90 % of control.

`N#CCCOS(=O)(=O)c1cccc([N+](=O)[O-])c1`: the T/C by setting is: under setting [5], 98 % of control; under setting [6], 101 % of control; under setting [7], 93 % of control.

Regarding `C1=CC2CC2C1` (configuration not stated), the T/C reads like this: (endpoint: median survival time, dose: 50.0 mg/kg/injection, schedule: Q04DX002 (ip), vehicle: saline with Tween-80) 88 % of control; (endpoint: median survival time, dose: 100.0 mg/kg/injection, schedule: Q04DX002 (ip), vehicle: saline with Tween-80) 88 % of control; (endpoint: median survival time, dose: 200.0 mg/kg/injection, schedule: Q04DX002 (ip), vehicle: saline with Tween-80) 88 % of control; (endpoint: median survival time, dose: 400.0 mg/kg/injection, schedule: Q04DX002 (ip), vehicle: saline with Tween-80) 88 % of control.

Turning to `N#CSCc1cc(Cl)c(CSC#N)c(Cl)c1Cl`, the T/C was 101 % of control (endpoint: mean survival time, dose: 75.0 mg/kg/injection, schedule: Q04DX003 (ip), vehicle: saline); 96 % of control (endpoint: mean survival time, dose: 150.0 mg/kg/injection, schedule: Q04DX003 (ip), vehicle: saline); 97 % of control (endpoint: mean survival time, dose: 300.0 mg/kg/injection, schedule: Q04DX003 (ip), vehicle: saline).

As to `CCCCCCCCCCCCCCCCCCN1C(=O)C2C3CCC(O3)C2C1=O` (configuration not stated), the T/C (endpoint: mean survival time, dose: 25.0 mg/kg/injection, schedule: Q04DX002 (ip), vehicle: saline with Tween-80) was 98 % of control; the T/C under setting [8] was 98 % of control; the T/C under setting [3] is 94 % of control.

Turning to `CO[C@]12[C@@H](COC(N)=O)C3=C(C(=O)C(C)=C(NCCCO)C3=O)N1C[C@@H]1[C@H]2N1C` (some centres not stated), the T/C runs as follows: (endpoint: mean survival time, dose: 1.5 mg/kg/injection, schedule: Q01DX001 (ip), vehicle: water) 101 % of control; (endpoint: mean survival time, dose: 3.0 mg/kg/injection, schedule: Q01DX001 (ip), vehicle: water) 101 % of control; (endpoint: mean survival time, dose: 6.0 mg/kg/injection, schedule: Q01DX001 (ip), vehicle: water) 102 % of control; (endpoint: mean survival time, dose: 12.0 mg/kg/injection, schedule: Q01DX001 (ip), vehicle: water) 107 % of control; (endpoint: mean survival time, dose: 18.75 mg/kg/injection, schedule: Q01DX001 (ip), vehicle: distilled water + Tween-80) 104 % of control; (endpoint: mean survival time, dose: 24.0 mg/kg/injection, schedule: Q01DX001 (ip), vehicle: water) 101 % of control. The T/C runs as follows: (endpoint: mean survival time, dose: 36.0 mg/kg/injection, schedule: Q01DX001 (ip), vehicle: water) 102 % of control; (endpoint: mean survival time, dose: 37.5 mg/kg/injection, schedule: Q01DX001 (ip), vehicle: distilled water + Tween-80) 107 % of control; (endpoint: mean survival time, dose: 75.0 mg/kg/injection, schedule: Q01DX001 (ip), vehicle: distilled water + Tween-80) 107 % of control; (endpoint: mean survival time, dose: 150.0 mg/kg/injection, schedule: Q01DX001 (ip), vehicle: distilled water + Tween-80) 116 % of control.

As for `CN1CCN(CCSSCCN2CCN(C)CC2)CC1`, the T/C reads like this: (endpoint: mean survival time, dose: 50.0 mg/kg/injection, schedule: Q01DX009 (ip), vehicle: saline sonified) 97 % of control; (endpoint: mean survival time, dose: 100.0 mg/kg/injection, schedule: Q01DX009 (ip), vehicle: saline sonified) 97 % of control; under setting [5], 105 % of control; (endpoint: mean survival time, dose: 200.0 mg/kg/injection, schedule: Q01DX009 (ip), vehicle: saline sonified) 98 % of control; under setting [6], 100 % of control.

Consider `CCCCCC(Br)C(Br)CC(Br)C(Br)CC(Br)C(Br)CCCCC(=O)O` (configuration not stated), for which the T/C is 101 % of control (endpoint: mean survival time, dose: 100.0 mg/kg/injection, schedule: Q01DX001 (ip), vehicle: Klucel (hydroxypropylcellulose) (HPC)); 96 % of control (endpoint: mean survival time, dose: 200.0 mg/kg/injection, schedule: Q01DX001 (ip), vehicle: Klucel (hydroxypropylcellulose) (HPC)); 107 % of control (endpoint: mean survival time, dose: 400.0 mg/kg/injection, schedule: Q01DX001 (ip), vehicle: Klucel (hydroxypropylcellulose) (HPC)).
